Consider seven compounds from patent US20080187935A1, “Homo and Heterodimer Proteins of the Abcg Family, Methods For Detection and Screening Modulators Thereof” (priority 2004, published 2008).

For one series, the target named is T1, human ABCG4 (Homo sapiens, UniProt Q9H172).
T1 construct: made in house; host or cells: Sf9 insect cells (baculovirus), isolated membranes; cDNA from I.M.A.G.E. clone 1537140
In words: vanadate-sensitive ATPase activity of ABCG4 in isolated Sf9 membranes. It counts as biochemical. As to the method:
Recombinant baculoviruses carrying transporter cDNA were generated with BaculoGold Transfection Kit (Pharmingen), in accordance with the manufacturer's protocol. The titer of virus supernatants were determined in order to express the same amount of each proteins, Sf9 (Spodoptera frugiperda ovarian) cells (Invitrogen) were infected and cultured according to the procedures described previously (19). Briefly, about 3×10^7 cells were infected with 3 ml of virus supernatant in case of homodimer expression and 1.5-1.5 ml of virus supernatants in case of heterodimer expression. The virus-infected Sf9 cells were cultured in T150 culture flasks with 30 ml of medium for the times indicated. […] The supernatant fluid was then centrifuged for 60 min at 100,000×g and the pellet containing the membranes resuspended in TMEP at a protein concentration of 2-3 mg/ml. All procedures were carried out at 4° C., and the membranes were stored at −70° C. The ATPase activity of the isolated Sf9 cell membranes was estimated by measuring inorganic phosphate liberation. […] The indicated drugs (obtained from Sigma) were added in dimethyl sulfoxide. The final concentration of dimethyl sulfoxide in the assay medium was 1%. […] The reactions were stopped by the addition of 0.1 ml of 5% SDS solution and the amount of inorganic phosphate determined immediately. Inorganic phosphate was measured by colorimetric reaction (19). […]

For a further series, the target named is T2, ABCG1/ABCG4 (Homo sapiens, UniProt P45844+Q9H172).
T2 construct: made in house; host or cells: Sf9 insect cells co-infected with both baculoviruses, isolated membranes
In words: ATPase activity of co-expressed ABCG1/ABCG4 in Sf9 membranes. It counts as biochemical. As to conditions: various concentrations, data not shown. As to the method: (§1) Recombinant baculoviruses carrying transporter cDNA were generated with BaculoGold Transfection Kit (Pharmingen), in accordance with the manufacturer's protocol. The titer of virus supernatants were determined in order to express the same amount of each proteins, Sf9 (Spodoptera frugiperda ovarian) cells (Invitrogen) were infected and cultured according to the procedures described previously (19). Briefly, about 3×10^7 cells were infected with 3 ml of virus supernatant in case of homodimer expression and 1.5-1.5 ml of virus supernatants in case of heterodimer expression. The virus-infected Sf9 cells were cultured in T150 culture flasks with 30 ml of medium for the times indicated. […]
(§2) The ATPase activity of the isolated Sf9 cell membranes was estimated by measuring inorganic phosphate liberation. Membrane suspensions (about 20 μg of membrane protein, as determined by a modified Lowry method) were incubated at 37° C. for 20-min in 0.15 ml of a medium containing 40 mM MOPS-Tris (pH 7.0), 0.5 mM EGTA-Tris (pH 7.0), 2 mM dithiothreitol, 50 mM KCl, 1 mM ouabain and 5 mM sodium azide, and the ATPase reaction was started by the addition of 3.3 mM MgATP. […] The reactions were stopped by the addition of 0.1 ml of 5% SDS solution and the amount of inorganic phosphate determined immediately. Inorganic phosphate was measured by colorimetric reaction (19). […]

In another series the target is T3, human ABCG1 (Homo sapiens, UniProt P45844).
T3 construct: made in house; host or cells: Sf9 insect cells (baculovirus), isolated membranes
In words: vanadate-sensitive ATPase activity of ABCG1 in isolated Sf9 membranes. As to conditions: for effect on ABCG1 ATPase activity (in words): Sf9 membranes, 3.3 mM MgATP. It counts as biochemical. The protocol:
Recombinant baculoviruses carrying transporter cDNA were generated with BaculoGold Transfection Kit (Pharmingen), in accordance with the manufacturer's protocol. The titer of virus supernatants were determined in order to express the same amount of each proteins, Sf9 (Spodoptera frugiperda ovarian) cells (Invitrogen) were infected and cultured according to the procedures described previously (19). Briefly, about 3×10^7 cells were infected with 3 ml of virus supernatant in case of homodimer expression and 1.5-1.5 ml of virus supernatants in case of heterodimer expression. The virus-infected Sf9 cells were cultured in T150 culture flasks with 30 ml of medium for the times indicated. The cells were harvested by scraping them into Tris-mannitol buffer (50 mM Tris, pH 7.0, with HCl, containing 300 mM mannitol and 0.5 mM phenylmethylsulfonyl fluoride).
For membrane preparation the cells were lysed and homogenized using a glass-Teflon tissue homogenizer in TMEP (50 mM Tris, pH 7.0, with HCl, containing 50 mM mannitol, 2 mM EGTA-Tris, 10 µg/ml leupeptin, 8 µg/ml aprotinin, 0.5 mM phenylmethylsulfonyl fluoride, and 2 mM dithiothreitol), and the undisrupted cells and nuclear debris were removed by centrifugation at 500×g for 10 min. The supernatant fluid was then centrifuged for 60 min at 100,000×g and the pellet containing the membranes resuspended in TMEP at a protein concentration of 2-3 mg/ml. All procedures were carried out at 4° C., and the membranes were stored at −70° C.
The ATPase activity of the isolated Sf9 cell membranes was estimated by measuring inorganic phosphate liberation. Membrane suspensions (about 20 μg of membrane protein, as determined by a modified Lowry method) were incubated at 37° C. for 20-min in 0.15 ml of a medium containing 40 mM MOPS-Tris (pH 7.0), 0.5 mM EGTA-Tris (pH 7.0), 2 mM dithiothreitol, 50 mM KCl, 1 mM ouabain and 5 mM sodium azide, and the ATPase reaction was started by the addition of 3.3 mM MgATP. The indicated drugs (obtained from Sigma) were added in dimethyl sulfoxide. The final concentration of dimethyl sulfoxide in the assay medium was 1%. […] The reactions were stopped by the addition of 0.1 ml of 5% SDS solution and the amount of inorganic phosphate determined immediately. Inorganic phosphate was measured by colorimetric reaction (19). The points plotted in the figures indicate the means of triplicate determinations.

For a further series, the target named is T4, ABCG2R482G (Homo sapiens, UniProt Q9UNQ0, R482G).
T4 construct: host or cells: Sf9 membranes
T4 sequence (Q9UNQ0 1-655 R482G): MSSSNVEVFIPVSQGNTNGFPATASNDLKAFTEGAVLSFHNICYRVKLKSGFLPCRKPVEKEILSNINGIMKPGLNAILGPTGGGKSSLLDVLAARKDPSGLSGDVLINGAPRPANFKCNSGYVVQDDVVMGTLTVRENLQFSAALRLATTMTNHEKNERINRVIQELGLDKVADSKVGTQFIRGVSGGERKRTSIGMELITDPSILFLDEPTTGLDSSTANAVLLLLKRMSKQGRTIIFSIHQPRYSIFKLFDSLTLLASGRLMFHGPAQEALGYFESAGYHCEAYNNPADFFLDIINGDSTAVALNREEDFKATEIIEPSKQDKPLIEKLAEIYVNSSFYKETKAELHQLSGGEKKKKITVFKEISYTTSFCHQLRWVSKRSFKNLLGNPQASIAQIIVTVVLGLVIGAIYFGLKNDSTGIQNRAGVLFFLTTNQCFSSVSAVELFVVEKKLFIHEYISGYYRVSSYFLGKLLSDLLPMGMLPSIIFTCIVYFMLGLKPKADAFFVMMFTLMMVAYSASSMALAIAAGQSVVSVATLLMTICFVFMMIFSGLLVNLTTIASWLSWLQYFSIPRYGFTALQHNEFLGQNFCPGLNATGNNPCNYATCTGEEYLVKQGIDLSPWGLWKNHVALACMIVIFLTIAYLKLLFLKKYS
The following applies: Özvegy C et al., 2001, cited from earlier work.

A further series addresses T5, ABCG1K124M (Homo sapiens, UniProt P45844, K124M).
T5 construct: made in house; host or cells: Sf9 insect cells (baculovirus), isolated membranes
The series is described as follows: ATPase activity of catalytic site mutant ABCG1K124M in Sf9 membranes. It counts as biochemical. The following applies: data not shown. As to the method:
as §1, §2

T1 sequence (Q9H172 whole entry): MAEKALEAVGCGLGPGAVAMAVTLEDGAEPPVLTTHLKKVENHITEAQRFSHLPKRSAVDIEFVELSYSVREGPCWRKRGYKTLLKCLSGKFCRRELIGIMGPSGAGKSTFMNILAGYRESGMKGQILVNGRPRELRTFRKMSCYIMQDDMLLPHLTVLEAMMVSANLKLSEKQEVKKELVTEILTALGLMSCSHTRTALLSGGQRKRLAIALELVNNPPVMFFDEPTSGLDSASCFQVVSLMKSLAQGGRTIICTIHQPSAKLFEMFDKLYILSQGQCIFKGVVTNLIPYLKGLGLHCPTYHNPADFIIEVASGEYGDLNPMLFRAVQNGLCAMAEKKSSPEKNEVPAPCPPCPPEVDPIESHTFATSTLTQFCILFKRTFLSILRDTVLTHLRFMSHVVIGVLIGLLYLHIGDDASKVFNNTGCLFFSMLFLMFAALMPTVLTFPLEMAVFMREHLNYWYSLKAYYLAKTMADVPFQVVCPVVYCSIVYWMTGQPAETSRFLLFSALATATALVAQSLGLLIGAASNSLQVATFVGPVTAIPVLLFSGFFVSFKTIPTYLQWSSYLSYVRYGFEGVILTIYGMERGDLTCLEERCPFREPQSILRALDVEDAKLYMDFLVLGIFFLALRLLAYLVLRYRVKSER

As for `Nc1c(O)cccc1C(=O)C[C@H](N)C(=O)O` [3-OH kynurenine, 3-OH-kynurenine], the “effect on ABCG4 ATPase activity (in words)” value at human ABCG4 is on record as “could not detect a change in activity”. Also, the “effect on ATPase activity of co-expressed ABCG1/ABCG4 (in words)” value at ABCG1/ABCG4 was “could not detect a change in activity”. Besides, the “effect on ABCG1 ATPase activity (in words)” value at human ABCG1 is recorded as “could not detect a change in activity”.
For orientation: Km means the substrate concentration at which the rate is half of its maximum. With `Nc1ncnc2c1ncn2[C@@H]1O[C@H](COP(=O)(O)OP(=O)(O)OP(=O)(O)O)[C@@H](O)[C@H]1O` [ATP], the Km is ~600 µM on ABCG2R482G (read-out: Km for ATP) and ~500 µM at human ABCG1 (with or without 100 μM rhodamine123, read-out: Km for ATP).
The term Ki denotes a dissociation constant, usually derived from enzyme kinetics or from competition with a known ligand. A high value points to weaker binding. As for `NC(=NCc1ccccc1)NC(=O)c1nc(Cl)c(N)nc1N` [Benzamil, benzamil], at human ABCG1 (inhibition of ABCG1 ATPase activity), the Ki is ~0.5 µM.
In the case of `COc1ccc2c3c([nH]c2c1)[C@H](CC(C)C)N1C(=O)[C@H](CCC(=O)OC(C)(C)C)NC(=O)[C@@H]1C3` [Ko143], the “effect on ABCG1 ATPase activity (in words)” value at human ABCG1 is “no effect”.
Same read-out and setting: the entry for `N[C@@H](Cc1cc(I)c(Oc2cc(I)c(O)c(I)c2)c(I)c1)C(=O)O` [L-thyroxine] is “inhibited ABCG1”.
On the same count and under the same terms, the entry for cyclosporin A is “inhibited ABCG1 ATPase activity at low concentrations”.
Regarding rhodamine123, on human ABCG4, the “effect on ABCG4 ATPase activity (in words)” value is “no effect”. The “stimulation of ABCG2R482G mutant ATPase activity” value on ABCG2R482G is reported as “about 1.4 fold”. In addition, the “increase of ATPase activity of ABCG1” value at human ABCG1 (20 μM rhodamine123) is reported as “increased almost two fold”. For the same compound, on human ABCG1 (ABCG1 co-expressed with β-Gal, 100 μM rhodamine123, units = nanomoles Pi/mg membrane protein/min, basal 19.2±1.24, SEM, n=3), the “rhodamine123 stimulated ATPase activity” value came out at 33.6±0.65 units. Also, at human ABCG1, the “effect on ABCG1 ATPase activity (in words)” value is reported as “substantially stimulate”. The EC50 at human ABCG1 (stimulation of ABCG1 ATPase activity, read-out: Kact) is ~10 µM. Moreover, the “effect on ABCG1K124M ATPase activity (in words)” value on ABCG1K124M is on record as “negligible”.
